This assay relates to Jurkat. As to the kind of experiment: CellTiter-Glo Luminescent Cell Viability Assay, half inhibitory concentration (IC50) on tumor cell proliferation. Format: cell-based. As to conditions: Homo sapiens, Jurkat cells, 72 h treatment. As for the experimental part: The tumor cells used herein were cultured in a cell culture medium at 37° C. in an incubator with 5% CO2, where the cell culture medium was supplemented with 10% FBS, as well as penicillin at a final concentration of 100 U/mL and streptomycin at a final concentration of 100 μg/mL. Prior to experimentation, all cells used were identified as correct cells by STR cells, and were negative for mycoplasma through routine testing.
IC50 values of the compounds of the present disclosure (including the compounds in Table 1 and compounds of examples) were measured using the CellTiter-Glo® Luminescent Cell Viability Assay kit from Promega Corporation. Assay details are as follows: Cells were seeded in 100 μL RPMI1640 medium containing serum at a density of 20,000 cells/well. After 24 h, the inoculated cells were treated with the compounds of the present disclosure which were serially diluted. After the cells were treated with the compounds of the present disclosure for 72 h, the CellTiter-Glo® reagent was added to the culture medium for cell viability assessment according to the instructions provided with the kit. DMSO served as the negative control, and FK866 inhibitor was used as the positive control, both treated with the same protocol as the compounds of the present disclosure. The growth inhibition of the compounds of the present disclosure on cells was plotted by Prism Graphpad software, and the IC50 values of the compounds of the present disclosure were calculated therefrom.
Take `O=C(/C=C/c1cccnc1)NCCCCC1CCN(C(=O)c2ccc(N3CCN(CCCCCCCSc4cccc5c4CN(C4CCC(=O)NC4=O)C5=O)CC3)cc2)CC1` (stereo not shown) [SIAIS630134, (E)-N-(4-(1-(4-(4-(7-((2-(2,6-dioxopiperidin-3-yl)-1-oxoisoindolin-4-yl)thio)heptyl)piperazin-1-yl)benzoyl)piperidin-4-yl)butyl)-3-(pyridin-3-yl)acrylamide]: the midpoint of inhibition, the IC50, lay at 7.28 nM.
With `O=C(/C=C/c1cccnc1)NCCCCC1CCN(C(=O)c2ccc(N3CCN(CCCCCCCCSc4cccc5c4CN(C4CCC(=O)NC4=O)C5=O)CC3)cc2)CC1` (stereo not shown) [SIAIS630135, (E)-N-(4-(1-(4-(4-(8-((2-(2,6-dioxopiperidin-3-yl)-1-oxoisoindolin-4-yl)thio)octyl)piperazin-1-yl)benzoyl)piperidin-4-yl)butyl)-3-(pyridin-3-yl)acrylamide], it took 4.02 nM to reach half-maximal inhibition (IC50).
Then `O=C(/C=C/c1cccnc1)NCCCCC1CCN(C(=O)c2ccc(N3CCN(CCCCCCCCCCCSc4cccc5c4CN(C4CCC(=O)NC4=O)C5=O)CC3)cc2)CC1` (stereo not shown) [SIAIS630136, (E)-N-(4-(1-(4-(4-(11-((2-(2,6-dioxopiperidin-3-yl)-1-oxoisoindolin-4-yl)thio)undecyl)piperazin-1-yl)benzoyl)piperidin-4-yl)butyl)-3-(pyridin-3-yl)acrylamide], with 64.5 nM; and `Cc1ncsc1-c1ccc(CNC(=O)[C@@H]2C[C@@H](O)CN2C(=O)[C@@H](NC(=O)CCOCCOCCC(=O)N2CCN(c3ccc(C(=O)N4CCC(CCCCNC(=O)/C=C/c5cccnc5)CC4)cc3)CC2)C(C)(C)C)cc1` [SIAIS631011, (2S,4R)-1-((S)-3,3-dimethyl-2-(3-(2-(3-oxo-3-(4-(4-(4-(4-((E)-3-(pyridin-3-yl)acrylamido)butyl)piperidine-1-carbonyl)phenyl)piperazin-1-yl)propoxy)ethoxy)propanamido)butanoyl)-4-hydroxy-N-(4-(4-methylthiazol-5-yl)benzyl)pyrrolidine-2-carboxamide], with 140 nM.
Take `O=C(/C=C/c1cccnc1)NCCCCN1CCN(C(=O)c2ccc(N3CCN(CCCCCC#Cc4cccc5c4CN(C4CCC(=O)NC4=O)C5=O)CC3)cc2)CC1` (stereo not shown) [SIAIS631045, (E)-N-(4-(4-(4-(4-(7-(2-(2,6-dioxopiperidin-3-yl)-1-oxoisoindolin-4-yl)hept-6-yn-1-yl)piperazin-1-yl)benzoyl)piperazin-1-yl)butyl)-3-(pyridin-3-yl)acrylamide]: the half-maximal inhibitory concentration (IC50) came out at 80 nM.
`O=C(/C=C/c1cccnc1)NCCCCC1CCN(C(=O)c2ccc(N3CCN(CCSc4cccc5c4C(=O)N(C4CCC(=O)NC4=O)C5=O)CC3)cc2)CC1` (stereo not shown) [SIAIS631068, (E)-N-(4-(1-(4-(4-(2-((2-(2,6-dioxopiperidin-3-yl)-1,3-dioxoisoindolin-4-yl)thio)ethyl)piperazin-1-yl)benzoyl)piperidin-4-yl)butyl)-3-(pyridin-3-yl)acrylamide] returned an IC50 of 74.4 nM.
Regarding `O=C(/C=C/c1cccnc1)NCCCCC1CCN(C(=O)c2ccc(N3CCN(CCCSc4cccc5c4C(=O)N(C4CCC(=O)NC4=O)C5=O)CC3)cc2)CC1` (stereo not shown) [SIAIS631069, (E)-N-(4-(1-(4-(4-(3-((2-(2,6-dioxopiperidin-3-yl)-1,3-dioxoisoindolin-4-yl)thio)propyl)piperazin-1-yl)benzoyl)piperidin-4-yl)butyl)-3-(pyridin-3-yl)acrylamide], 71.2 nM corresponded to half-maximal inhibition (IC50).
As to `O=C(/C=C/c1cccnc1)NCCCCC1CCN(C(=O)c2ccc(N3CCN(CCCCSc4cccc5c4C(=O)N(C4CCC(=O)NC4=O)C5=O)CC3)cc2)CC1` (stereo not shown) [SIAIS631070, (E)-N-(4-(1-(4-(4-(4-((2-(2,6-dioxopiperidin-3-yl)-1,3-dioxoisoindolin-4-yl)thio)butyl)piperazin-1-yl)benzoyl)piperidin-4-yl)butyl)-3-(pyridin-3-yl)acrylamide], inhibition was half-maximal at 62.9 nM (IC50).
`O=C(/C=C/c1cccnc1)NCCCCC1CCN(C(=O)c2ccc(N3CCN(CCCCCSc4cccc5c4C(=O)N(C4CCC(=O)NC4=O)C5=O)CC3)cc2)CC1` (stereo not shown) [SIAIS631071, (E)-N-(4-(1-(4-(4-(5-((2-(2,6-dioxopiperidin-3-yl)-1,3-dioxoisoindolin-4-yl)thio)pentyl)piperazin-1-yl)benzoyl)piperidin-4-yl)butyl)-3-(pyridin-3-yl)acrylamide] returned a half-maximal inhibitory concentration (IC50) of 635 nM.
Compound `O=C(/C=C/c1cccnc1)NCCCCC1CCN(C(=O)c2ccc(N3CCN(CCCCCCSc4cccc5c4C(=O)N(C4CCC(=O)NC4=O)C5=O)CC3)cc2)CC1` (stereo not shown) [SIAIS631072, (E)-N-(4-(1-(4-(4-(6-((2-(2,6-dioxopiperidin-3-yl)-1,3-dioxoisoindolin-4-yl)thio)hexyl)piperazin-1-yl)benzoyl)piperidin-4-yl)butyl)-3-(pyridin-3-yl)acrylamide] had an IC50 of 63 nM.
For `O=C(/C=C/c1cccnc1)NCCCCC1CCN(C(=O)c2ccc(N3CCN(CCCCCCCCSc4cccc5c4C(=O)N(C4CCC(=O)NC4=O)C5=O)CC3)cc2)CC1` (stereo not shown) [SIAIS631073, (E)-N-(4-(1-(4-(4-(8-((2-(2,6-dioxopiperidin-3-yl)-1,3-dioxoisoindolin-4-yl)thio)octyl)piperazin-1-yl)benzoyl)piperidin-4-yl)butyl)-3-(pyridin-3-yl)acrylamide], the concentration for half-maximal inhibition (IC50) stood at 62.5 nM.
`O=C(/C=C/c1cccnc1)NCCCCC1CCN(C(=O)c2ccc(N3CCN(CCCCCCCSc4cccc5c4C(=O)N(C4CCC(=O)NC4=O)C5=O)CC3)cc2)CC1` (stereo not shown) [SIAIS631078, (E)-N-(4-(1-(4-(4-(7-((2-(2,6-dioxopiperidin-3-yl)-1,3-dioxoisoindolin-4-yl)thio)heptyl)piperazin-1-yl)benzoyl)piperidin-4-yl)butyl)-3-(pyridin-3-yl)acrylamide] registered an IC50 of 62.2 nM.
Take `O=C(/C=C/c1cccnc1)NCCCCC1CCN(C(=O)c2ccc(N3CCN(C(=O)CCOCCNc4cccc5c4C(=O)N(C4CCC(=O)NC4=O)C5=O)CC3)cc2)CC1` (stereo not shown) [SIAIS631079, (E)-N-(4-(1-(4-(4-(3-(2-((2-(2,6-dioxopiperidin-3-yl)-1,3-dioxoisoindolin-4-yl)amino)ethoxy)propanoyl)piperazin-1-yl)benzoyl)piperidin-4-yl)butyl)-3-(pyridin-3-yl)acrylamide]: the concentration for half-maximal inhibition (IC50) worked out at 7.32 nM.
The figure for `O=C(/C=C/c1cccnc1)NCCCCC1CCN(C(=O)c2ccc(N3CCN(CCCCCC#Cc4cccc5c4C(=O)N(C4CCC(=O)NC4=O)C5=O)CC3)cc2)CC1` (stereo not shown) [SIAIS631108, (E)-N-(4-(1-(4-(4-(7-(2-(2,6-dioxopiperidin-3-yl)-1,3-dioxoisoindolin-4-yl)hept-6-yn-1-yl)piperazin-1-yl)benzoyl)piperidin-4-yl)butyl)-3-(pyridin-3-yl)acrylamide] is 79.7 nM.
As for `O=C(/C=C/c1cccnc1)NCCCCC1CCN(C(=O)c2ccc(N3CCN(C(=O)CCOCCOCCNc4cccc5c4C(=O)N(C4CCC(=O)NC4=O)C5=O)CC3)cc2)CC1` (stereo not shown) [SIAIS631109, (E)-N-(4-(1-(4-(4-(3-(2-(2-((2-(2,6-dioxopiperidin-3-yl)-1,3-dioxoisoindolin-4-yl)amino)ethoxy)ethoxy)propanoyl)piperazin-1-yl)benzoyl)piperidin-4-yl)butyl)-3-(pyridin-3-yl)acrylamide], half-maximal inhibition (IC50) was put at 71.2 nM.
On to `O=C(/C=C/c1cccnc1)NCCCCC1CCN(C(=O)c2ccc(N3CCN(C(=O)COCCSc4cccc5c4C(=O)N(C4CCC(=O)NC4=O)C5=O)CC3)cc2)CC1` (stereo not shown) [SIAIS631111, (E)-N-(4-(1-(4-(4-(2-(2-((2-(2,6-dioxopiperidin-3-yl)-1,3-dioxoisoindolin-4-yl)thio)ethoxy)acetyl)piperazin-1-yl)benzoyl)piperidin-4-yl)butyl)-3-(pyridin-3-yl)acrylamide], for which the IC50 worked out at 64.3 nM.
Then `O=C(/C=C/c1cccnc1)NCCCCC1CCN(C(=O)c2ccc(N3CCN(C(=O)COCCOCCSc4cccc5c4C(=O)N(C4CCC(=O)NC4=O)C5=O)CC3)cc2)CC1` (stereo not shown) [SIAIS631112, (E)-N-(4-(1-(4-(4-(2-(2-(2-((2-(2,6-dioxopiperidin-3-yl)-1,3-dioxoisoindolin-4-yl)thio)ethoxy)ethoxy)acetyl)piperazin-1-yl)benzoyl)piperidin-4-yl)butyl)-3-(pyridin-3-yl)acrylamide], with 66.7 nM.
As for `O=C(/C=C/c1cccnc1)NCCCCC1CCN(C(=O)c2ccc(N3CCN(C(=O)COCCOCCOCCSc4cccc5c4C(=O)N(C4CCC(=O)NC4=O)C5=O)CC3)cc2)CC1` (stereo not shown) [SIAIS631113, (E)-N-(4-(1-(4-(4-(2-(2-(2-(2-((2-(2,6-dioxopiperidin-3-yl)-1,3-dioxoisoindolin-4-yl)thio)ethoxy)ethoxy)ethoxy)acetyl)piperazin-1-yl)benzoyl)piperidin-4-yl)butyl)-3-(pyridin-3-yl)acrylamide], 68.1 nM corresponded to half-maximal inhibition (IC50).
Compound `O=C(/C=C/c1cccnc1)NCCCCC1CCN(C(=O)c2ccc(N3CCN(C(=O)COCCOCCOCCOCCSc4cccc5c4C(=O)N(C4CCC(=O)NC4=O)C5=O)CC3)cc2)CC1` (stereo not shown) [SIAIS631114, (E)-N-(4-(1-(4-(4-(14-((2-(2,6-dioxopiperidin-3-yl)-1,3-dioxoisoindolin-4-yl)thio)-3,6,9,12-tetraoxatetradecanoyl)piperazin-1-yl)benzoyl)piperidin-4-yl)butyl)-3-(pyridin-3-yl)acrylamide] registered an IC50 of 66.5 nM.

The values are drawn from US20250144223A1, “PROTEIN DEGRADATION COMPOUND BASED ON NAMPT TARGET PROTEIN AND APPLICATION THEREOF” (GLUETACS THERAPEUTICS (SHANGHAI) CO., LTD., priority 2021, published 2025).
